Source: ChEMBL document CHEMBL6109147, “Discovery of Potent STING Inhibitors Bearing a Difluorobenzodioxol Structural Motif as Potent Anti-Inflammatory Agents” (J Med Chem, 2025)
Calls of active or inactive are those of the source. No cut-off for these calls is given here.

Columns and labels:
[1] = molecular target: Stimulator of interferon genes protein (Homo sapiens) (UniProt Q86WV6); assay: Binding affinity to Flag-tagged human STING expressed in HEK293T cells assessed as labelling measured after 1 hr by TAMRA-N3 fluorescent assay; assay type: cell-based
[2] = molecular target: Stimulator of interferon genes protein (Homo sapiens) (UniProt Q86WV6); assay: Binding affinity to Flag-tagged human STING expressed in HEK293T cells assessed as labelling pretreated for 15 mins with (E)-1-(5-(3-Cyanoprop-1-en-1-yl)-1H-indol-3-yl)-3-(2,2-difluorobenzo[d][1,3]dioxol-5-yl)urea followed by treated at 1 uM for 1 hr by TAMRA-N3 fluorescent assay; assay type: cell-based; conditions: time 75.0 min
[3] = molecular target: T1, Stimulator of interferon genes protein (Mus musculus, UniProt Q3TBT3); assay: Inhibition of mouse STING in mouse RAW cells assessed as secreted luciferase reporter of interferon stimulated gene (ISG) measured after 24 hrs incubation by QUANTI-Luc detection assay; assay type: cell-based
T1 sequence (Q3TBT3 whole entry): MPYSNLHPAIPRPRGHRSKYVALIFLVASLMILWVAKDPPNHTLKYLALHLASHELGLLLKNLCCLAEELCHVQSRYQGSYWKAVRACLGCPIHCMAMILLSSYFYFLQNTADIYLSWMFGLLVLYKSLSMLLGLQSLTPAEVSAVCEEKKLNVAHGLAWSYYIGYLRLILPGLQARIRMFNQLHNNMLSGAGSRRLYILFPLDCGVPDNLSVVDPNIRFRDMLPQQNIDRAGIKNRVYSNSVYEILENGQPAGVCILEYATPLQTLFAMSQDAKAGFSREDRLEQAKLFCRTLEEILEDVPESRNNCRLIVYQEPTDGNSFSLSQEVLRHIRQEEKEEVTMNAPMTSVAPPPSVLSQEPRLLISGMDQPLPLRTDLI

[4] = Half life in Sprague-Dawley rat at 1 mg/kg, iv; assay type: ADME, organism-based; conditions: in vivo
Mus musculus [5] = assay: Anti-inflammatory activity against MSA-2 induced C57BL/6 mouse inflammation model assessed as inhibition of MSA-2 induced Isg15 mRNA expression in kidney at 10 mg/kg, ip pre-treated for 1 hr followed by stimulated with MSA-2 for 4 hrs by real-time PCR analysis; assay type: functional, organism-based; conditions: time 5.0 hrs
[6] = Volume of distribution at steady state in Sprague-Dawley rat at 1 mg/kg, iv; assay type: ADME, organism-based; conditions: in vivo
HEK293 = assay: Protection of Cisplatin induced apoptosis in human HEK293 cells assessed as apoptotic cells at 10 uM measured after 72 hrs by flow cytometry; assay type: functional, cell-based
[7] = MRT (0 to infinity) in Sprague-Dawley rat at 1 mg/kg, iv; assay type: ADME, organism-based; conditions: in vivo
[8] = Metabolic stability in rat liver microsomes assessed as liver intrinsic clearance; assay type: ADME, Microsome
[9] = Metabolic stability in mouse liver microsomes assessed as microsomal intrinsic clearance; assay type: ADME, Microsome; conditions: read-out: CLH
Mus musculus [10] = assay: Anti-inflammatory activity against MSA-2 induced C57BL/6 mouse inflammation model assessed as inhibition of MSA-2 induced Cxcl-10 mRNA expression in kidney at 10 mg/kg, ip pre-treated for 1 hr followed by stimulated with MSA-2 for 4 hrs by real-time PCR analysis; assay type: functional, organism-based; conditions: time 5.0 hrs
Mus musculus [11] = assay: Anti-inflammatory activity against MSA-2 induced C57BL/6 mouse inflammation model assessed as inhibition of MSA-2 induced Isg56 RNA expression in kidney at 10 mg/kg, ip pre-treated for 1 hr followed by stimulated with MSA-2 for 4 hrs by real-time PCR analysis; assay type: functional, organism-based; conditions: time 5.0 hrs
Mus musculus [12] = assay: Anti-inflammatory activity against MSA-2 induced C57BL/6 mouse inflammation model assessed as inhibition of MSA-2 induced TNF-alpha mRNA expression in kidney at 10 mg/kg, ip pre-treated for 1 hr followed by stimulated with MSA-2 for 4 hrs by real-time PCR analysis; assay type: functional, organism-based; conditions: time 5.0 hrs
[13] = Metabolic stability in human liver microsomes assessed as half life; assay type: ADME, Microsome
[14] = Metabolic stability in human liver microsomes assessed as microsomal intrinsic clearance; assay type: ADME, Microsome; conditions: read-out: CLH
[15] = Metabolic stability in mouse liver microsomes assessed as liver intrinsic clearance; assay type: ADME, Microsome
Mus musculus [16] = assay: Anti-inflammatory activity against MSA-2 induced C57BL/6 mouse inflammation model assessed as inhibition of MSA-2 induced IP-10 level in plasma at 10 mg/kg, ip pre-treated for 1 hr followed by stimulated with MSA-2 for 4 hrs by ELISA; assay type: functional, organism-based; conditions: time 5.0 hrs
Mus musculus [17] = assay: Anti-inflammatory activity against MSA-2 induced C57BL/6 mouse inflammation model assessed as inhibition of MSA-2 induced IL-6 level in kidney at 10 mg/kg, ip pre-treated for 1 hr followed by stimulated with MSA-2 for 4 hrs by ELISA; assay type: functional, organism-based; conditions: time 5.0 hrs
[18] = Metabolic stability in rat liver microsomes assessed as half life; assay type: ADME, Microsome
[19] = Clearance in Sprague-Dawley rat at 1 mg/kg, iv; assay type: ADME, organism-based; conditions: in vivo
Mus musculus [20] = assay: Anti-inflammatory activity against MSA-2 induced C57BL/6 mouse inflammation model assessed as inhibition of MSA-2 induced IL-6 level in plasma at 10 mg/kg, ip pre-treated for 1 hr followed by stimulated with MSA-2 for 4 hrs by ELISA; assay type: functional, organism-based; conditions: time 5.0 hrs
[21] = Metabolic stability in mouse liver microsomes assessed as half life; assay type: ADME, Microsome
Mus musculus [22] = assay: Anti-inflammatory activity against MSA-2 induced C57BL/6 mouse inflammation model assessed as inhibition of MSA-2 induced IP-10 level in kidney at 10 mg/kg, ip pre-treated for 1 hr followed by stimulated with MSA-2 for 4 hrs by ELISA; assay type: functional, organism-based; conditions: time 5.0 hrs
[23] = Metabolic stability in rat liver microsomes assessed as microsomal intrinsic clearance; assay type: ADME, Microsome; conditions: read-out: CLH
Mus musculus [24] = assay: Anti-inflammatory activity against MSA-2 induced C57BL/6 mouse inflammation model assessed as inhibition of MSA-2 induced IL-6 mRNA expression in kidney at 10 mg/kg, ip pre-treated for 1 hr followed by stimulated with MSA-2 for 4 hrs by real-time PCR analysis; assay type: functional, organism-based; conditions: time 5.0 hrs
[25] = AUC (0 to infinity) in Sprague-Dawley rat at 1 mg/kg, iv; assay type: ADME, organism-based; conditions: in vivo
[26] = Metabolic stability in human liver microsomes assessed as liver intrinsic clearance; assay type: ADME, Microsome
[27] = Inhibition of intracellular DNA induced Ifnb mRNA expression in human IMR-90 cells measured after 6 hrs by PCR assay; conditions: IMR-90, 6 h

Stimulator of interferon genes protein (Homo sapiens), sequence (Q86WV6 whole entry): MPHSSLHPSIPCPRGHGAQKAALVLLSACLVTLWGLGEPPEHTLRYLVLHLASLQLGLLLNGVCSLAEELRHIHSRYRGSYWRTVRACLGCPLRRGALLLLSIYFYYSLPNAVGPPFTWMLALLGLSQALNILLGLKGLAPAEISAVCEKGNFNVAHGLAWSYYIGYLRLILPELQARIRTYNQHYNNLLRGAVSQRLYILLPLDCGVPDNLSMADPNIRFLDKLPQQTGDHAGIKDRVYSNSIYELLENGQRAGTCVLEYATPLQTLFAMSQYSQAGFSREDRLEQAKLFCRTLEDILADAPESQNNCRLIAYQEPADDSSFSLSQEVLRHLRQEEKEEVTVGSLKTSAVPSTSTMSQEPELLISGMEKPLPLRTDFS

For C#Cc1ccc2[nH]cc(NC(=O)Nc3ccc4c(c3)OC(F)(F)O4)c2c1, the Activity [1] was “Dose-dependent-effect”, the Activity [2] was “inactive” and the IC50 [3] was 5450 nM.

For Fc1ccc2[nH]cc(Nc3nc4cc(C5CCCC5)ccc4[nH]3)c2c1, the IC50 [3] was 210 nM.

Work on O=C(Nc1ccc2c(c1)OC(F)(F)O2)Nc1c[nH]c2ccccc12 yielded an IC50 [3] of 407 nM.

With O=C(Nc1ccc2c(c1)OC(F)(F)O2)Nc1c[nH]c2ccc(Cl)cc12 the IC50 [3] was 815 nM.

For Fc1ccc2[nH]cc(Nc3nc4cc5c(cc4[nH]3)OC(F)(F)O5)c2c1, the IC50 [3] was 229 nM.

With CCc1ccc(NC(=O)Nc2c[nH]c3ccccc23)cc1 the half-life [4] was 9.6 min, the inhibition (Mus musculus [5]) was “Active” and the Vd ([6]; Sprague-Dawley, read-out: Vdss) was 1.94 L/kg. For the same molecule, the Activity (HEK293) was “Active”, the MRT inf ([7]; Sprague-Dawley) was 12 min and the CLH [8] was 2448 µL/min/mg. The microsomal CLint [9] was 220 µL/min/mg, the inhibition (Mus musculus [10]) was “Active” and the inhibition (Mus musculus [11]) was “Active”. The inhibition (Mus musculus [12]) was “Active”, the half-life [13] was 12.1 min and the microsomal CLint [14] was 115 µL/min/mg. For the same molecule, the CLH [15] was 873 µL/min/mg, the inhibition (Mus musculus [16]) was “Active” and the inhibition (Mus musculus [17]) was “Active”. The half-life [18] was 1.02 min, the clearance [19] was 144 mL/min/kg and the inhibition (Mus musculus [20]) was “Active”. For the same molecule, the half-life [21] was 6.29 min, the inhibition (Mus musculus [22]) was “Active” and the microsomal CLint [23] was 1360 µL/min/mg. For the same molecule, the inhibition (Mus musculus [24]) was “Active”, the AUC(0-inf) [25] was 116 ng·h/mL and the CLH [26] was 103 µL/min/mg.

With O=C(Nc1cccc2c1OC(F)(F)O2)Nc1c[nH]c2ccccc12 the IC50 [3] was 457 nM.

With Fc1cc2[nH]cc(Nc3nc4cc(C5CCCC5)ccc4[nH]3)c2cc1F the IC50 [3] was 305 nM.

For Fc1cnc2[nH]cc(Nc3nc4cc(C5CCCC5)ccc4[nH]3)c2c1, the half-life [4] was 25.8 min, the Vdss ([6]; iv, 1 mg/kg) was 14.04 L/kg and the MRT ([7]; iv, 1 mg/kg) was 16.2 min. It also gave an IC50 [3] of 52.3 nM and an AUC(0-inf) [25] of 43.8 ng·h/mL.

Work on CC[C@@H]1NC(=O)[C@@H]2[C@H](Cl)[C@H](Cl)CN2C(=O)[C@H](CC)NC(=O)C[C@H](c2ccccc2)NC(=O)[C@H](CO)NC1=O yielded an IC50 [27] of 10800 nM.

With O=C(Nc1ccc2c(c1)OC(F)(F)O2)Nc1c[nH]c2ccc(Br)cc12 the IC50 [3] was 776 nM.
